Laboratory results: ChEMBL document CHEMBL1212878, “In vitro ADMET and physicochemical investigations of poly-N-methylated peptides designed to inhibit Abeta aggregation” (Bioorg Med Chem, 2010)
Values after ≈ are worked out from the molar mass of the structure shown. Active and inactive are the calls of the source. No cut-off for these calls is given here. Square brackets hold non-standard residues; d marks the D form. Peptide text beside a SMILES is read from it. NMeF = CN[C@@H](Cc1ccccc1)C(=O)O; NMeI = CC[C@H](C)[C@H](NC)C(=O)O; NMeL = CN[C@@H](CC(C)C)C(=O)O; NMeV = CN[C@H](C(=O)O)C(C)C; NMeA = CN[C@@H](C)C(=O)O; Sar = CNCC(=O)O

Experiments:
[1] = Aqueous solubility of the compound at pH 7.4; type: physicochemical
[2] = Chemical stability of the compound assessed as compound remaining after enzymatic degradation after 24 hrs; type: physicochemical; conditions: read-out: Activity
[3] = Apparent permeability across rat 2/4/A1 cells in absence of pronase inhibitor; type: ADME, cell-based
[4] = Cytotoxicity against rat 2/4/A1 cells assessed as cell viability up to 200 uM after 4 hrs by MTT assay; type: cell-based; conditions: read-out: Activity
[5] = Inhibition of Amyloid beta aggregation

Compound	solubility [1]	remaining at 24 h [2]	Papp [3]	inhibition [5]	viability at 4 h [4]
CC[C@H](C)[C@H](NC(C)=O)C(=O)N(C)CC(=O)N[C@@H](CC(C)C)C(=O)N[C@@H](CCSC)C(=O)N[C@H](C(=O)N(C)CC(N)=O)C(C)C (Ac-I[Sar]LMV[Sar]-NH2)	> 2500 µM	60%	2.2 ×10⁻⁶ cm/s		95%
CC(=O)N[C@@H](CCCCN)C(=O)N[C@@H](CC(C)C)C(=O)N(C)[C@H](C(=O)N[C@@H](Cc1ccccc1)C(=O)N(C)[C@@H](Cc1ccccc1)C(=O)N[C@@H](C)C(N)=O)C(C)C (Ac-KL[NMeV]F[NMeF]A-NH2)	1580 µM (≈ 1260 µg/mL)	96%			95%
CC(=O)N[C@@H](CCCCN)C(=O)N(C)[C@@H](CC(C)C)C(=O)N(C)[C@H](C(=O)N(C)[C@@H](Cc1ccccc1)C(=O)N(C)[C@@H](Cc1ccccc1)C(=O)N(C)[C@@H](C)C(N)=O)C(C)C (Ac-K[NMeL][NMeV][NMeF][NMeF][NMeA]-NH2)	899 µM (≈ 751 µg/mL)	98%	2.3 ×10⁻⁶ cm/s		95%
CC[C@H](C)[C@@H](C(=O)NCC(=O)N(C)[C@@H](CC(C)C)C(=O)N[C@@H](CCSC)C(=O)N(C)[C@H](C(=O)NCC(N)=O)C(C)C)N(C)C(C)=O (Ac-[NMeI]G[NMeL]M[NMeV]G-NH2)	> 2500 µM	94%	1.6 ×10⁻⁶ cm/s		95%
CC[C@H](C)[C@@H](C(=O)N(C)CC(=O)N(C)[C@@H](CC(C)C)C(=O)N[C@@H](CCSC)C(=O)N(C)[C@H](C(=O)N(C)CC(N)=O)C(C)C)N(C)C(C)=O (Ac-[NMeI][Sar][NMeL]M[NMeV][Sar]-NH2)	> 2500 µM	100%	1.4 ×10⁻⁶ cm/s		95%

Continued, in another order:

solubility [1]	remaining at 24 h [2]	Papp [3]	inhibition [5]	Compound	viability at 4 h [4]
> 2500 µM	94%			CC(=O)N[C@@H](CCCCN)C(=O)N(C)[C@@H](CC(C)C)C(=O)N[C@H](C(=O)N(C)[C@@H](Cc1ccccc1)C(=O)N[C@@H](Cc1ccccc1)C(=O)N(C)[C@@H](C)C(N)=O)C(C)C (Ac-K[NMeL]V[NMeF]F[NMeA]-NH2)	95%
3 µM	20%	3.1 ×10⁻⁶ cm/s		Ac-IGLMVG-NH2	95%
32 µM	36%	2.8 ×10⁻⁶ cm/s	Active	Ac-KLVFFA-NH2	95%
